Measured values: patent US9622995B2, “Treatment of disorders associated with G protein-coupled receptor 35 (GPR35)” (TEMPLE UNIVERSITY—OF THE COMMONWEALTH SYSTEM OF HIGHER …, priority 2009, dated 2017)

What was measured:
GPR35 = GPR35 (Homo sapiens, UniProt Q9HC97, S294R); experiment: cell-based
Procedure: Loss of cell surface receptor may be evaluated by methods such as On-Cell Western analysis of the cells under treatment.
In a non-limiting example, a cell line that expresses N-terminal triple HA-tagged GPR35 receptor is used. After contacting the cells with a candidate GPR35 agonist and incubating the system for a set period of time, the cells are incubated with an anti-HA mouse antibody, followed by incubation with a fluorophore-labeled anti-mouse antibody. The resulting observed fluorescence is then used to assess the level of GPR35 receptor on the cell surface.
The previously described U2OS cells expressing HA-GPR35a/βarr2-GFP (also known as UGPR35β cells) were seeded and grown until confluence on the bottoms of a 96-well plate. […] Cells were washed once with Hanks' balanced salt solution (HBSS, Cellgro, Mediatech, Inc, Manassas, Va., USA) prior to appropriate drug treatment and then fixed with 4% formaldehyde for 20 minutes at room temperature. This step was followed by three washes with PBS for 5 minutes each.
The secondary antibody (IRDye 800 conjugated anti-mouse IgG, Rockland, Gilbertsville, Pa.; 1:1000 in LI-COR Odyssey® blocking buffer) was then added to the treated cells and incubated for 1 hour at room temperature protected from light.
Cells grown on coverslips were incubated over ice for 40 minutes with a 1:500 dilution of mouse monoclonal anti-HA antibody in blocking buffer (3% BSA in PBS), followed by three consecutive washes with PBS. […] Antibody-labeled cells were treated with agonist alone or in combination with antagonist for 40 minutes at 37° C., and the cells were then imaged.
On-Cell western analysis was performed using a LI-COR odyssey infra-red imager to quantify ligand potency to induce loss of cell surface receptor.
For each concentration of the compound of interest, the intensity of labeling was measured using immunofluorescence. The readings were plotted against the compound concentrations, yielding binding curves that allowed the calculation of EC50 values (FIGS. 6C-E).

[1] = molecular target: T1, vasopressin receptor (V2R) (Homo sapiens, UniProt P30518); experiment: β-arrestin2-GFP redistribution in U2OS cells overexpressing V2R (specificity control); type: cell-based; settings: U2OS cells with β-arrestin2-GFP and overexpressed V2R, 1 μM
T1 construct: expressed in transfected cells; host or cells: U2OS cells
T1 sequence (P30518 whole entry, species assumed): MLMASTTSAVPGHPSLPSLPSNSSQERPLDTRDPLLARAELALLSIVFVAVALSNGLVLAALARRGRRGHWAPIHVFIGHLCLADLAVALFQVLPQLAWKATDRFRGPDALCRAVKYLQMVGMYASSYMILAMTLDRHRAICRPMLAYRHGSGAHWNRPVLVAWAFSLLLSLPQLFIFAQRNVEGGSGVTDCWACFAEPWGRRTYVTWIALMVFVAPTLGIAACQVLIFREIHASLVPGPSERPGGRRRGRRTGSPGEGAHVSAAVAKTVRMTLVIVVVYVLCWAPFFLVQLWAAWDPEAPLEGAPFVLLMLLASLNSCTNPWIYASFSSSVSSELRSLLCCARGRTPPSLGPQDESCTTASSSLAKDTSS
Procedure: (§1) U20S cells expressing HA-GPR35a/βarr2-GFP (also known as UGPR35β cells) were plated in a 24-well plate onto coverslips that were coated with poly-D-lysine (0.02 mg/ml; Sigma-Aldrich, St. Louis, Mo., USA) for 1 hour. Cells were maintained at 37° C., 5% CO2 until ready for experiment (90% confluent). Cells were washed once with Hanks' balanced salt solution (HBSS, Cellgro, Mediatech, Inc, Manassas, Va., USA) comprising CaCl2 0.14 g/L, KCl 0.4 g/L, KH2PO4 0.06 g/L, MgSO4 0.097 g/L, NaCl 8 g/L, Na2HPO4 0.047 g/L, NaHCO3 0.35 g/L, and D-glucose 1.0 g/L. For receptor activation, agonist-evoked redistribution of βarr2-GFP was measured by applying the drug for 40 minutes. For measuring the effects of antagonist, agonist and antagonist were co-applied.
(§2) Cells were then fixed with 4% paraformaldehyde for 20 minutes at room temperature, followed by three washes with HBSS.
In that panel, fluorescence was observed close to the cell membrane. As a control for drug specificity, 1 μM pamoic acid was added to a U2OS cell line containing β-arrestin2-GFP and overexpressed vasopressin receptor (V2R).

[2] = molecular target: T2, CB1 cannabinoid receptors (Homo sapiens, UniProt P21554); experiment: βarr2-GFP redistribution in U2OS cells co-expressing CB1 (specificity control); type: cell-based; settings: U2OS cells co-expressing β-arr2-GFP and CB1, 1 μM; data not shown
T2 construct: expressed in transfected cells; host or cells: U2OS cells
T2 sequence (P21554 whole entry): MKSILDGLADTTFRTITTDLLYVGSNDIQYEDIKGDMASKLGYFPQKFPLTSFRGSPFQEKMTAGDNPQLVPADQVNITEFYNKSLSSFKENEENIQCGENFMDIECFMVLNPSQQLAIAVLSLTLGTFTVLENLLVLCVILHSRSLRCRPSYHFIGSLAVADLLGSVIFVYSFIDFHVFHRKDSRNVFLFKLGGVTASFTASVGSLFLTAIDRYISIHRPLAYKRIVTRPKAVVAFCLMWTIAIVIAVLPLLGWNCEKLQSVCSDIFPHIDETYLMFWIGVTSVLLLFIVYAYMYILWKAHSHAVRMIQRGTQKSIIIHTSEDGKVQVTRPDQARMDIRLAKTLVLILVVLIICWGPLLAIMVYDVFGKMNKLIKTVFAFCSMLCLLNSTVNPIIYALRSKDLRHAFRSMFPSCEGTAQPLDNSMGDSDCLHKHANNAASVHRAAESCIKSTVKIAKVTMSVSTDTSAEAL

GPR55 receptors = molecular target: T3, GPR55 receptors (Homo sapiens, UniProt Q9Y2T6); experiment: βarr2-GFP redistribution in U2OS cells co-expressing GPR55 (specificity control); type: cell-based; settings: U2OS cells co-expressing βarr2-GFP and GPR55, 1 μM; data not shown
T3 construct: expressed in transfected cells; host or cells: U2OS cells
T3 sequence (Q9Y2T6 whole entry): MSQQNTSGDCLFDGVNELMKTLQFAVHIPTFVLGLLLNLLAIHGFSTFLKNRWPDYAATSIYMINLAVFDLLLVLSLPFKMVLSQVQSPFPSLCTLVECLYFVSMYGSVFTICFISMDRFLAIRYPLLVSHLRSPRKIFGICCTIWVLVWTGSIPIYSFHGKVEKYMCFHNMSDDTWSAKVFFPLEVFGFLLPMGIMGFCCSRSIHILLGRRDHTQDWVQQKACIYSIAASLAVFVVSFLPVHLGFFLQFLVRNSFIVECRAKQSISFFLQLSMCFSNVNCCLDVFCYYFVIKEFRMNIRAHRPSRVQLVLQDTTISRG

[3] = Acetic acid writhing (abdominal constriction) test in mice; settings: for mean number of writhes: male Swiss Webster mice, 0.6% acetic acid i.p., saline control 21±1
mouse GPR35 = molecular target: T4, mouse GPR35 (Mus musculus, UniProt Q9ES90); settings: CHO cells co-transfected with mouse GPR35, Aequorin readout; Wang et al. 2006; read-out: EC50 for receptor activation; cited from earlier work
T4 construct: host or cells: CHO cells
T4 sequence (Q9ES90 whole entry): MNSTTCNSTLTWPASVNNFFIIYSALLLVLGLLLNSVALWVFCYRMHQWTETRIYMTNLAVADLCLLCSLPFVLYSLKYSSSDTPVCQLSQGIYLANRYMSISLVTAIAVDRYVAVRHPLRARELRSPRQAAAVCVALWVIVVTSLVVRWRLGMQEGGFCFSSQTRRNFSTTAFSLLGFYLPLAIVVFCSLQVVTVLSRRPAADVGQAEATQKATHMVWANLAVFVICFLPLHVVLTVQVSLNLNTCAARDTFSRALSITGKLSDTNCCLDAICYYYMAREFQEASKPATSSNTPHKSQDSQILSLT

rat GPR35 = molecular target: T5, rat GPR35 (Rattus norvegicus, UniProt Q33BM1); settings: CHO cells co-transfected with rat GPR35, Aequorin readout; Wang et al. 2006; read-out: EC50 for receptor activation; cited from earlier work
T5 construct: host or cells: CHO cells
T5 sequence (Q33BM1 1-306): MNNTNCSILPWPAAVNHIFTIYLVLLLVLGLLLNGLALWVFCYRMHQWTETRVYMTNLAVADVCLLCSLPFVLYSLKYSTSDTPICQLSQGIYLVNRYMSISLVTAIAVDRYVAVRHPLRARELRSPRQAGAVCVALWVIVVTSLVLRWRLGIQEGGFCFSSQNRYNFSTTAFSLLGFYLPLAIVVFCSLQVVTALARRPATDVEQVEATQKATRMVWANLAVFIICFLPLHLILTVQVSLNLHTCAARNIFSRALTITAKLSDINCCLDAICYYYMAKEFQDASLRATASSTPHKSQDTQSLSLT

human GPR35 = molecular target: T6, human GPR35 (Homo sapiens, UniProt Q9HC97); settings: CHO cells co-transfected with human GPR35, Aequorin readout; Wang et al. 2006; read-out: EC50 for receptor activation; cited from earlier work
T6 construct: host or cells: CHO cells
T6 sequence (Q9HC97 whole entry): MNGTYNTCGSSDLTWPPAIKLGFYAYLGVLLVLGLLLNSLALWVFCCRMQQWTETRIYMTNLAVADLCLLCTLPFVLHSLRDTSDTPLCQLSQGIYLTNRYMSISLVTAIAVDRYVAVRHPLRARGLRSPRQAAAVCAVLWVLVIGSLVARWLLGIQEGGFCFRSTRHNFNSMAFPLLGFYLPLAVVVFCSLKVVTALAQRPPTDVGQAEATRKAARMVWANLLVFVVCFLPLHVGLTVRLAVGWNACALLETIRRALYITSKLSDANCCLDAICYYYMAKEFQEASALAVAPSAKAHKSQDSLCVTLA

GPR35a = GPR35a (Homo sapiens, UniProt Q9HC97, S294R); experiment: β-arrestin2-GFP redistribution/aggregation in UGPR35β cells; type: cell-based; parameters: expressed in transfected cells; settings: mean (95% confidence interval in brackets in the text), read-out: EC50 for β-arrestin2 aggregation
Chain of GPR35a (Q9HC97 whole entry S294R): as the sequence (Q9HC97 whole entry) above, with S294R counted along it
Source text: This cellular assay utilizes the intracellular β-arrestin protein as a reporter of receptor activity. […] Upon agonist-mediated GPCR activation, β-arrestins rapidly redistribute en masse to ligand-activated plasma membrane receptors (on the other hand, β-arrestins remain in the cytosol upon antagonist binding to the receptor). Activated GPCR/β-arrestin complexes will concentrate in clathrin-coated pits and/or internal vesicles where most GPCRs normally undergo internalization. At this juncture, the β-arrestin either (i) dissociates and returns to the cytoplasm, or (ii) further redistributes with the receptor into an intracellular endosomal vesicle, depending on the receptor type. It is the agonist-induced redistribution of β-arrestin-GFP into progressively smaller compartments (cytosolic compartment>plasma membrane>coated pit>endosomal compartment) that enables imaging of receptor activation.
This cell line is herein referred to as UGPR35β. Selected cells were maintained at 200 μg/ml G418® and 100 μg/ml Zeocin® at 37° C. and 5% CO2.
as §1, §2
βarr2-GFP aggregates were identified by a wavelet-based, Microsoft Windows-compatible computer program written in the MatLab programming environment. A program algorithm extracts from two dimensional images those pixels that generate objects of interest that fall within a predetermined range of sizes and intensities and that are embedded among widely varying local backgrounds (L. Barak, available from the Duke University GPCR Assay Bank). Concentration-effect curves for agonist-mediated receptor activation were analyzed by non-linear regression techniques using GraphPad Prism 4.0 software (GraphPad) and data were fitted to sigmoidal dose-response curves to obtain EC50 or IC50 values. Statistical analysis was performed using one-way analysis of variance (ANOVA) followed by Dunnett's post-test or two-tailed unpaired student t test. P values of <0.05 are considered significant.
A prototypical U2OS osteosarcoma cell line that permanently expresses β-arrestin-GFP and N-terminal triple HA-tagged human GPR35a was used to screen ligands for agonism or antagonism against the GPR35 receptor. […] Endogenous receptors are invisible to the assay because there are too few endogenous receptors of any type compared to the number of β-arrestin molecules in the cell to provide a measurable response.
Upon agonist-mediated GPCR activation, β-arrestins rapidly redistribute en masse to ligand-activated plasma membrane receptors, and then the activated GPCR/arrestin complexes concentrate in clathrincoated pits and/or internal vesicles.
Concentration response curves for β-arrestin2 aggregation were obtained for compounds of interest. For this study, UGPR35β cells were treated with different concentrations of a compound of interest and images of the cells (acquired in triplicate in three or more independent experiments) were analyzed for fluorescence.

[4] = Middle cerebral artery occlusion with reperfusion (MCAO/R) stroke model; type: in vivo; settings: male mice
Procedure: Several animal-based models for stroke have been proposed and validated, such as the artery occlusion and reperfusion model in male mice described by Zhang and coworkers (Microvasc. Res., 2009, 78(1):86-94). In this model, the animals are submitted to middle cerebral artery occlusion for a period of 60 minutes and then reperfusion is allowed. Cerebral infarction volume is measured by analyzing sections of the animal brain stained with triphenyltetrazolium chloride. Triphenyltetrazolium chloride is believed to be reduced to red formazan by mitochondrial enzymes, specifically succinate dehydrogenase (Lippold, 1982, Histochemistry 76:381-405). […] Therefore, TTC staining is extensively used in animal stroke experiments for quantitatively delineating the infarct volume (Memezawa et al., 1992, Exp. Brain Res. 89:67-78.; Hasegawa et al., 1995, J. Cereb. Blood Flow Metab. 15:179-187; Kuge et al., 1995, Stroke 26:1655-1658; Fuhai et al., 1997, J. Cereb. Blood Flow Metab. 17:1132-1135). […]
Cerebral infarction volume was measured 24 hours after MCAO/R. The animals were euthanized with an overdose of pentobarbital (200 mg/kg i.p.) 24 hours after MCAO and the brains were removed, and chilled on ice for 10 min to slightly harden the tissue. […]

Chain of GPR35 (Q9HC97 whole entry S294R): as the sequence (Q9HC97 whole entry) above, with S294R counted along it

## CN1CCCN=C1/C=C/c1cccs1 [pyrantel pamoate]
GPR35
  EC50: 0.0887 µM

## O=C(O)c1cc2ccccc2c(Cc2c(O)c(C(=O)O)cc3ccccc23)c1O [Compound 1, 4-[(3-carboxy-2-hydroxynaphthalen-1-yl)methyl]-3-hydroxynaphthalene-2-carboxylic acid]
[1]
  change in β-arrestin2-GFP fluorescence distribution: no change in fluorescence distribution was observed
[2]
  βarr2-GFP response: no response was observed
GPR55 receptors
  βarr2-GFP response: no response was observed
[3]; mice, s.c., dose of 100 mg/kg
  antinociceptive effect, in words: essentially complete antinociception
[3]; mice, s.c., given as disodium pamoate, 95% CL 28.3-90.3 mg/kg
  subcutaneous dose causing 50% antinociception: 40.5 mg/kg

## O=C(O)c1cc(=O)c2ccccc2[nH]1 [kynurenic acid, 2-carboxy-4-hydroxy-quinoline]
Mouse GPR35
  EC50: 11 µM
Rat GPR35
  EC50: 7 µM
Human GPR35
  EC50: 40 µM
GPR35a
  EC50: 217 µM

## O=C(O)c1cc2ccccc2c(Cc2c(O)c(C(=O)O)cc3ccccc23)c1O [disodium pamoate]
[4]; given one hour prior to reperfusion, measured 24 hours after MCAO/R, control about 27%
  infarction percentage: about 17%
[4]; versus untreated control
  reduction in infarction percentage: about 37%
[3]; 25 mg/kg s.c.
  mean number of writhes: 14±2
[3]; 50 mg/kg s.c.
  mean number of writhes: 11±2
[3]; 100 mg/kg s.c.
  mean number of writhes: 0.4±0.2
